Marks after values point to notes of the source that are not given here.
Columns and labels:
[1] = target: Acetylcholinesterase (AChE) (Homo sapiens, UniProt P22303); assay: Acetylcholinesterase inhibition screening; type: biochemical
[2] = Antioxidant assay by DPPH scavenging
male Wistar rats = type: in vivo, rat
[3] = system: liver, kidneys, heart, and brain; assay: Histopathological examination of chronic toxicity study; type: in vivo, mice; conditions: H&E
AD-induced rats = assay: T-maze test in AlCl3-induced AD rats; type: in vivo, rat; conditions: Treatment 4 weeks; for T-maze test, time taken to reach food: seconds, n = 10
[4] = system: Alzheimer's disease-induced rats; assay: Beam balance test in AlCl3-induced AD rats; type: in vivo, rat; conditions: Treatment 4 weeks
[5] = system: brain tissue of AD-induced rats; assay: Brain oxidative stress markers; type: in vivo, rat
Bcl-2 gene = Bcl-2 gene expression in brain samples of AD induced rats; type: in vivo, rat; conditions: AD rats treated vs AD rats
Bax gene = Bax gene expression in brain samples of AD induced rats; type: in vivo, rat; conditions: AD rats treated vs AD rats
Tau gene = Tau gene expression in brain samples of AD induced rats; type: in vivo, rat; conditions: AD rats treated vs AD rats
Wistar rats = assay: Acute toxicity, oral, rats
[6] = male rats, 10 mg per kg body weight
[7] = male rats, 10 mg per kg body weight, one month

Chain of Acetylcholinesterase (AChE) (P22303 32-614, species assumed): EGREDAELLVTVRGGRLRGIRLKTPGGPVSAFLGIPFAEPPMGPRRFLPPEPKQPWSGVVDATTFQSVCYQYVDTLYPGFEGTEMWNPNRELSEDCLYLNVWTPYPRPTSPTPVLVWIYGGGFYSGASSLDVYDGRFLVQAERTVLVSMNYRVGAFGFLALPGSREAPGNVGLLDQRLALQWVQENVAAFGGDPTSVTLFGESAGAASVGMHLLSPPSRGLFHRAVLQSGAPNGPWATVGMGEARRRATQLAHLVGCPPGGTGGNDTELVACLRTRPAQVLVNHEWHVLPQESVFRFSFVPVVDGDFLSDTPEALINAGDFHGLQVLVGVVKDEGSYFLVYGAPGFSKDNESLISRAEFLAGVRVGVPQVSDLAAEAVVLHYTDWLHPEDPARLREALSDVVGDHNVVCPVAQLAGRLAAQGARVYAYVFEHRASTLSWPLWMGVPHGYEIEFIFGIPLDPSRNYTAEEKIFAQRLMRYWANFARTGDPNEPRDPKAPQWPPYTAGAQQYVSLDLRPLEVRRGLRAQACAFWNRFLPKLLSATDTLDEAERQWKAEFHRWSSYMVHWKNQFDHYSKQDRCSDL

Cc1cc(=O)oc2cc(OCC(=O)NN=C3CCCc4ccccc43)ccc12 [Compound 4a, N′-(3,4-dihydronaphthalen-1(2H)-ylidene)-2-((4-methyl-2-oxo-2H-chromen-7-yl)oxy)acetohydrazide]
IC50 [1]: 13.1 µM | Percent of antioxidant activity (DPPH scavenging) ([2]; Concentration (0.01 mg)): 31.8 ± 0.2% | Percent of antioxidant activity (DPPH scavenging) ([2]; Concentration (0.05 mg)): 40.9 ± 3.1%

Cc1cc(=O)oc2cc(OCC(=O)NN=C3C(=O)Nc4ccccc43)ccc12 [Compound 4b, 2-((4-Methyl-2-oxo-2H-chromen-7-yl)oxy)-N′-(2-oxoindolin-3-ylidene) acetohydrazide]
IC50 [1]: 20.9 µM | Percent of antioxidant activity (DPPH scavenging) ([2]; Concentration (0.01 mg)): 31.8 ± 1.2% | Percent of antioxidant activity (DPPH scavenging) ([2]; Concentration (0.05 mg)): 35.00 ± 1.00%

Cc1cc(=O)oc2cc(OCC(=O)NN=C3CCc4ccccc43)ccc12 [Compound 4c, N′-(2,3-Dihydro-1H-inden-1-ylidene)-2-((4-methyl-2-oxo-2H-chromen-7-yl)oxy)acetohydrazide]
IC50 [1]: 2.21 µM | Percent of antioxidant activity (DPPH scavenging) ([2]; Concentration (0.01 mg)): 28.00 ± 0.4% | Percent of antioxidant activity (DPPH scavenging) ([2]; Concentration (0.05 mg)): 57.14 ± 2.77% | Signs of chronic toxicity (male Wistar rats; 10 mg per kg b.wt orally, male Wistar rats, one month): didn't see any indication of harmfulness | Change in blood profile levels vs control rats (male Wistar rats; 10 mg per kg b.wt, one month): insignificant changes | Change in creatinine level vs untreated group (male Wistar rats; 10 mg per kg b.wt, one month): significant increase | Change in hepatic enzyme levels (AST, ALT, and ALP) vs control group (male Wistar rats; 10 mg per kg b.wt, one month): insignificant difference | Change in total urea level vs untreated group (male Wistar rats; 10 mg per kg b.wt, one month): insignificant change | ALP (male Wistar rats; [6]): 136.00 ± 9.00 ^a U/l | ALT (male Wistar rats; [6]): 79.00 ± 4.40 ^a U/l | AST (male Wistar rats; [6]): 32.00 ± 1.20 ^a U/l | Creatinine (male Wistar rats; [6]): 2.80 ± 0.07 mg/dL | Urea (male Wistar rats; [6]): 20.00 ± 1.57 mg/dL | Haematocrit (male Wistar rats; [7]): 45.00 ± 1.87 ^a % | Hemoglobin (Hb) (male Wistar rats; [7]): 14.58 ± 0.59 ^a g L^−1 | Lymphocyte (male Wistar rats; [7]): 7.62 ± 0.66 ^a 10^3 cm^−1 | MPV (male Wistar rats; [7]): 8.66 ± 0.19 ^a fL | Mean corpuscular hemoglobin (MCH) (male Wistar rats; [7]): 17.78 ± 0.88 ^a pg | Mean corpuscular hemoglobin concentration (MCHC) (male Wistar rats; [7]): 33.98 ± 0.25 ^a g dL^−1 | Mean corpuscular volume (MCV) (male Wistar rats; [7]): 59.00 ± 0.03 ^a fL | Monocyte (male Wistar rats; [7]): 1.93 ± 0.06 ^a 10^3 cm^−1 | Neutrophils (male Wistar rats; [7]): 2.39 ± 0.09 ^a 10^3 cm^−1 | Platelets (male Wistar rats; [7]): 465.00 ± 12.00 ^a 10^3 mm^−1 | RDW-CV (male Wistar rats; [7]): 15.80 ± 0.19 ^a % | Red blood cells (RBCs) (male Wistar rats; [7]): 8.00 ± 0.08 ^a million cells per mm | White blood cells WBCs (male Wistar rats; [7]): 10.89 ± 1.90 ^a 10^3 cmm^−1 | Heart and brain histopathology [3]: no histopathological damage | Kidney histopathology [3]: no histopathological alterations | Liver histopathology [3]: slight Kupffer cell proliferation | T-maze test, % improvement (AD-induced rats): 148.37% | T-maze test, time taken to reach food (AD-induced rats): 28.20 ± 1.80 Sc | Beam balance test time [4]: 8.99 ± 1.00 Sc | Beam balance test, % improvement [4]: 60.00% | GSH % improvement ([5]; AD-induced rats): 27.17% | MDA % improvement ([5]; AD-induced rats): 90.64% | GSH ([5]; AD-induced rats, n = 8): 21.66 ± 1.21 mg per g tissues | MDA ([5]; AD-induced rats, n = 8): 22.43 ± 1.66 mg per g tissues | GSH % change to disease ([5]; vs AD group): 59.26% | MDA % change to disease ([5]; vs AD group): 32.19% | Expression of Bcl-2 gene (Bcl-2 gene): improved expression | Expression of Bax gene (Bax gene): reduced expression | Expression of Tau gene (Tau gene): reduced expression | Mortality (Wistar rats; 50 mg per kg b.wt, rats): No mortality | Mortality (Wistar rats; 100 mg per kg b.wt, post 24 h, one rat of 4): 25%

Cc1cc(=O)oc2cc(OCC(=O)NN=Cc3ccc(C(=O)O)cc3)ccc12 [Compound 4d, 4-((2-(2-((4-Methyl-2-oxo-2H-chromen-7-yl)oxy)acetyl) hydrazineylidene)methyl) benzoic acid]
IC50 [1]: 3.15 µM | Percent of antioxidant activity (DPPH scavenging) ([2]; Concentration (0.01 mg)): 4.5 ± 0.4% | Percent of antioxidant activity (DPPH scavenging) ([2]; Concentration (0.05 mg)): 10.3 ± 0.33%

COc1cc2c(cc1OC)C(=O)C(CC1CCN(Cc3ccccc3)CC1)C2 (centres unmarked) [Donepezil, reference compound]
T-maze test, % improvement (AD-induced rats): 181.70% | T-maze test, time taken to reach food (AD-induced rats): 23.10 ± 1.70 Sc | Beam balance test time [4]: 9.80 ± 0.88 Sc | Beam balance test, % improvement [4]: 67.98%

O=C1O[C@H]([C@@H](O)CO)C(O)=C1O [Vitamin C, ascorbic acid, reference compound]
Percent of antioxidant activity (DPPH scavenging) ([2]; Concentration (0.01 mg)): 80.00 ± 5.00% | Percent of antioxidant activity (DPPH scavenging) ([2]; Concentration (0.05 mg)): 89.00 ± 6.99%

Source: publication PMC10280131 (RSC Advances, 2023)
